# Results taken from patent publication US8940690B2, “Synthetic conjugates and uses thereof” (National Institutes of Health (NIH), priority 2009, dated 2015).
# How the values were obtained:
# [1] = test system: fasted normal non-diabetic rats (Male Sprague-Dawley); assay: Blood glucose depression profile after subcutaneous injection; type: in vivo, rat
# Method: Subcutaneous injections of the insulin-dextran were administered using 0.25 ml of a sterilized 1×PBS solution (20 U of equivalent insulin/ml) behind the neck of fasted normal non-diabetic rats (Male Sprague-Dawley, 200-250 g, n=4). Blood samples were collected via tail vein bleeding at −15 and 0 minutes, and at 15, 30, 45, 60, 90, 120, 180, 240, 300 and 360 minutes after injection. Blood glucose values were measured using commercially available test strips (Precision Xtra, Abbott Laboratories, Abbott Park, Ill.).
# This example evaluates the in vivo pharmacodynamic profile of subcutaneously administered insulin-glycogen. […] The bioactivity of the insulin-glycogen conjugate was evaluated by injecting a 2.5 equivalent U of insulin/kg dose behind the neck of fasted normal non-diabetic rats (Male Sprague-Dawley, 200-250 g, n=4). Blood samples were collected via tail vein bleeding at −15 and 0 minutes, and at 15, 30, 45, 60, 90, 120, 180, 240, 300 and 360 minutes after injection. Blood glucose values were measured using commercially available test strips (Precision Xtra, Abbott Laboratories, Abbott Park, Ill.).
# [2] = Serum insulin (PK) profile after subcutaneous injection, Human Insulin ELISA; type: in vivo, rat; settings: 5 U/kg
# Method: Blood samples were collected via tail vein bleeding at 0 minutes and at 30, 60, 90, 120, 150, 180, 210, 240, and 300 minutes after injection. Blood from each timepoint was centrifuged at 4 C to collect the serum. Serum insulin concentrations were subsequently measured with a commercially available ELISA kit (Human Insulin ELISA, Mercodia, Uppsala, Sweden).
# This example describes the serum insulin and blood glucose depression profiles obtained for a subcutaneously administered exemplary conjugate. […] In this case, the conjugate was injected at 5 U/kg behind the neck of fasted normal non-diabetic rats (Male Sprague-Dawley, 400-500 g, n=3). […] Serum insulin concentrations were subsequently measured with a commercially available ELISA kit (Human Insulin ELISA, Mercodia, Uppsala, Sweden).
# In each case, the conjugate or insulin lispro was injected at 3.5 U/kg behind the neck of fasted normal non-diabetic rats (Male Sprague-Dawley, 400-500 gm, n=6). […] Serum insulin concentrations were subsequently measured with a commercially available ELISA kit (Human Insulin ELISA, Mercodia, Uppsala, Sweden).
# Blood samples were collected via tail vein bleeding at 0 minutes and at 30, 60, 90, 120, 150, 180, 210, 240, and 300 minutes after injection. […] Serum insulin concentrations were subsequently measured with a commercially available ELISA kit (Human Insulin ELISA, Mercodia, Uppsala, Sweden).
# [3] = 0.25 ml of 20 U of equivalent insulin/ml
substance,measurement,setting,value
"insulin-dextran: comparative insulin-dextran conjugate (dextran MW 70K) made by CNBr coupling, 10% (w/w) insulin",time serum glucose levels remain depressed post injection,[1]; [3],at least five
same,time to reach the glucose nadir (Tnadir),[1]; [3],about 3 hours
insulin-glycogen: comparative insulin-glycogen conjugate from oyster glycogen Type II according to US 20070099820,glucose lowering compared to insulin-dextran conjugates,[1]; 2.5 equivalent U of insulin/kg,lower glucose levels much more rapidly and to a greater extent
"B29-substituted conjugate: synthesized using TSAT-C6 as the framework, AEM as the affinity ligand, and recombinant human insulin as the drug",pharmacokinetic profile (serum insulin) compared to RHI and B1-substituted conjugate,[2],statistically indistinguishable from that of RHI
